The test system of this experiment is cancer cell lines. Briefly: Garnett et al. drug screen re-analysed by TN/Agro/iBCR score. The note with it: Garnett et al. study; for sensitivity (−log10[IC50]) of high TN score vs low TN score cell lines: dichotomy across median TN score; for sensitivity of high iBCR score vs low iBCR score cell lines: dichotomy across median iBCR score. Format: cell-based. How it is done: FIG. 24: Drug sensitivity of cancer cell lines according to the TN score. The large published study by Garnett et al. was investigated where the TN score was calculated for each cell line in the study as described in Methods. The cell lines were classified as high or low TN score according to the median TN score to compare the sensitivity of low TN score cell lines (white boxes) and high TN score cell lines (red boxes). Graphs were prepared using GraphPad® Prism showing sensitivity as −log 10[IC50] in boxes (with median marked by a line) and whiskers (marking the 1st and 3rd quartiles and outliers as dots according to Tukey method for plotting the whiskers and outliers). Unpaired two-tailed t test was used for statistical analysis.
FIG. 30: Drug sensitivity of cancer cell lines according to the iBCR score. The large published study by Garnett et al. was investigated where the iBCR score was calculated for each cell line from the Agro and TN scores. The cell lines were classified as high or low iBCR score according to the median iBCR score to compare the sensitivity of low iBCR score cell lines (white boxes) and […] (red boxes). Results according to low and high Agro score were also included.
Two large studies which treated large panels of cancer cell lines with large panels of anticancer drugs were investigated to determine whether cell lines with high Agro, TN or iBCR scores show different sensitivity to particular anticancer drugs in comparison to cancer cell lines with low Agro, TN or iBCR scores. Briefly, the datasets of gene expression profiling from Genentech (mRNA Cancer Cell Line Profiles GSE10843), Pfizer (Pfizer Molecular Profile Data for Cell Line GSE34211) and Broad Institute/Novartis (Cancer Cell Line Encyclopedia [CCLE] GSE3613) were obtained from GEO and imported into ArrayTools as described earlier. The Agro, TN and iBCR scores for all the cell lines profiled were calculated and cell lines were assigned as high or low for each of the scores based on dichotomy across the median in each dataset. For cell lines which were profiled in more than one dataset, the average scores were used. […] Statistical significance was determined from unpaired two-tailed t-test using GraphPad® Prism.
In the second approach, published studies which surveyed panels of molecular drugs against, cancer cell lines were analyzed. The Cancer Cell Line Encyclopedia (CCLE) study investigated the pharmacological profiles for 24 anticancer drugs across 479 cancer cell lines which were also profiled with gene expression arrays. We calculated the TN score for each cell line in this study and compared the sensitivity of these cell lines to the anticancer drugs according to the TN score. […] In a similar method, we also analyzed a second large study. Garnett et al., which tested 130 drugs against more than 600 cancer cell lines.

With `CC1(C)CCC(c2ccc(Cl)cc2)=C(CN2CCN(c3ccc(C(=O)NS(=O)(=O)c4ccc(N[C@H](CCN5CCOCC5)CSc5ccccc5)c(S(=O)(=O)C(F)(F)F)c4)cc3)CC2)C1` [ABT-263], the “sensitivity (−log10[IC50]) of high TN score vs low TN score cell lines” value was “less sensitive” and the “sensitivity of high iBCR score vs low iBCR score cell lines” value is “less sensitive”. For the compound `C[C@]1(c2nc3c(C(N)=O)cccc3[nH]2)CCCN1` [ABT-888], the “sensitivity (−log10[IC50]) of high TN score vs low TN score cell lines” value is “less sensitive” and the “sensitivity of high iBCR score vs low iBCR score cell lines” value was “less sensitive”. With `CC1=C(/C=C/C(C)=C/C=C/C(C)=C/C(=O)O)C(C)(C)CCC1` [ATRA, all-trans retinoic acid], the “sensitivity (−log10[IC50]) of high TN score vs low TN score cell lines” value is given as “less sensitive” and the “sensitivity of high iBCR score vs low iBCR score cell lines” value is “less sensitive”.

Take `O=C(c1cc(Cc2n[nH]c(=O)c3ccccc23)ccc1F)N1CCN(C(=O)C2CC2)CC1` [AZD-2281]: the “sensitivity of high iBCR score vs low iBCR score cell lines” value is on record as “less sensitive”.

In the case of `CC[C@@H]1C(=O)N(C)c2cnc(Nc3ccc(C(=O)NC4CCN(C)CC4)cc3OC)nc2N1C1CCCC1` [B1-2536], the “sensitivity of high Agro score vs low Agro score cell lines” value is “more sensitive” and the “sensitivity of high iBCR score vs low iBCR score cell lines” value is reported as “more sensitive”. Consider `COc1ccc(-c2cc3nccn3c(Nc3ncccc3C(N)=O)n2)cc1OC` [BAY613606], for which the “sensitivity of high iBCR score vs low iBCR score cell lines” value is “less sensitive”. `Cn1c(=O)n(-c2ccc(C(C)(C)C#N)cc2)c2c3cc(-c4cnc5ccccc5c4)ccc3ncc21` [BEZ235]: the “sensitivity (−log10[IC50]) of high TN score vs low TN score cell lines” value was “more sensitive” and the “sensitivity of high iBCR score vs low iBCR score cell lines” value is listed as “more sensitive”.

Consider `Cc1ccc(-n2nc(C(C)(C)C)cc2NC(=O)Nc2ccc(OCCN3CCOCC3)c3ccccc23)cc1` [BIRB 0796], for which the “sensitivity (−log10[IC50]) of high TN score vs low TN score cell lines” value is given as “less sensitive” and the “sensitivity of high iBCR score vs low iBCR score cell lines” value is “less sensitive”. For `Cc1cc(N2CCOCC2)cc2[nH]c(-c3c(NC[C@@H](O)c4cccc(Cl)c4)cc[nH]c3=O)nc12` [BMS-536924], the “sensitivity (−log10[IC50]) of high TN score vs low TN score cell lines” value is reported as “more sensitive” and the “sensitivity of high iBCR score vs low iBCR score cell lines” value is listed as “more sensitive”. `CN(NC(=O)CC(=O)NN(C)C(=S)c1ccccc1)C(=S)c1ccccc1` [Elesclomol]: the “sensitivity (−log10[IC50]) of high TN score vs low TN score cell lines” value is “sensitive”. The same measure, in the same setting: the value for `C[C@]1(O)C[C@@H](c2nc(-c3ccc4ccc(-c5ccccc5)nc4c3)c3c(N)nccn32)C1` [OSI-906] was “less sensitive”. As to `COc1cc(F)c(F)c(Nc2ccc(I)cc2F)c1NS(=O)(=O)C1(C[C@H](O)CO)CC1` [RDEA-119], the “sensitivity (−log10[IC50]) of high TN score vs low TN score cell lines” value is “more sensitive”. `Cn1cc(C2=C(c3ccc(Cl)cc3Cl)C(=O)NC2=O)c2ccccc21` [SB216763]: the “sensitivity of high Agro score vs low Agro score cell lines” value is “less sensitive”. For `O=C(CCCCCCC(=O)Nc1ccccc1)NO` [Vorinostat], the “sensitivity of high iBCR score vs low iBCR score cell lines” value is recorded as “less sensitive”. As for `CN(C)C(=N)N=C(N)N` [metformin], the “sensitivity (−log10[IC50]) of high TN score vs low TN score cell lines” value was “less sensitive” and the “sensitivity of high iBCR score vs low iBCR score cell lines” value is given as “less sensitive”.

Take `CN(Cc1cnc2nc(N)nc(N)c2n1)c1ccc(C(=O)N[C@@H](CCC(=O)O)C(=O)O)cc1` [methotrexate]: the “sensitivity (−log10[IC50]) of high TN score vs low TN score cell lines” value was “less sensitive” and the “sensitivity of high iBCR score vs low iBCR score cell lines” value is on record as “less sensitive”.

(Values after patent US20170107577A1, “Determining Cancer Aggressiveness, Prognosis and Responsiveness to Treatment” (THE COUNCIL OF THE QUEENSLAND INSTITUTE OF MEDICAL RESEARCH, priority 2014, published 2017).)
